# Data published in patent US20140121235A1, “Method for Treating S6K-Overexpressing Cancers” (Rush University Medical Center, priority 2012, published 2014).
# Entries after “also recorded” stand apart in the source; their conditions may differ.
# How the values were obtained:
# [1] = tested on: ERK1/2^T202/Y204 and MEK1/2^S217/S221 phosphorylation; assay: Western blot of MAP kinase pathway phosphorylation in A375 cells; format: cell-based; details: A375 cells starved in 0.5% FBS; A77 1726 or leflunomide at indicated concentrations, 2 hr
# Description: (§1) A375 cells seeded in a 6-well plate were starved in DMEM medium containing 0.5% FBS for 2 hr and treated with the indicated concentration of A77 1726 or PLX 4720 (1 μM) for another 2 hr (A) or treated with A77 1726 (100 μM) for the indicated time (B & C). Cells were harvested and analyzed for protein phosphorylation by specific antibodies as indicated. Protein loading was monitored by stripping membrane and re-probing with antibodies against non-phosphorylated proteins. […] A375 cells seeded in a 6-well plate were starved in DMEM medium containing 05% FBS for 2 hr and treated with the indicated concentration of A77 1726 in the absence or presence of uridine (200 μM). Phosphorylated and total proteins were analyzed by Western blot as described above.
# (§2) A375 cells seeded in 6-well plates were starved in DMEM medium containing 0.5% FBS for 2 hr and then pre-treated with vehicle (0.1% dimethyl sulfoxide), LY294002 (10 μM) (A), PPP (1 μM) (B), or the inhibitors of the MAP kinase pathway (PLX4720, 1 μM; U0126, 10 μM; PD98059, 10 μM) (C) for 1 hr. Cells were then treated with A77 1726 (100 μM) or rapamycin (20 nM) as indicated for 2 hr. Cells were harvested and analyzed for protein phosphorylation by specific antibodies as indicated. Protein loading was monitored by stripping membrane and re-probing with antibodies against non-phosphorylated proteins.
# (§3) Cells grown in 6-well plates were harvested and lysed in NP-40 lysis buffer (50 mM Tris-HCI (pH 8.0), 150 mM NaCl, 1% NP-40, 5 mM EDTA, 10 μg/ml aprotinin, 10 μg/ml leupeptin, and 1 mM phenylmethylsulfonyl fluoride). After incubation on ice for 30 min, the cell lysates were prepared by spinning down at 4° C., 15,000 rpm for 15 min. After electrophoresis and transfer to Immobolin membrane, proteins of interest were probed with their specific antibodies, followed by horseradish peroxidase-conjugated goat anti-rabbit IgG and SuperSignal Western Pico enhanced chemiluminoscence substrate (Pierce Chemical Co., Rockford, Ill.).
# (§4) The PI-3 and MAP kinase pathways play an important role in cell proliferation, differentiation, and cell cycle progress. Multiple genes in these two pathways are frequently mutated and have a commanding role in driving tumorigenesis and tumor cell proliferation (2; 3). […] Here we tested whether A77 1726 affected the activation of MAP and PI-3 kinase pathways. A375 cells grown in 6-well plates were starved in the media containing 0.5% FBS for 2 hr and then treated with the indicated concentration of A77 1726. […] We next explored the effect of A77 1726 in phosphorylation of the molecules in the PI-3 kinase pathway.
# A375 cells = assay: Cell proliferation assay (ATP-based Cell-Glo); details: for inhibitory effect of A77 1726 blocked by uridine: exogenous uridine
# Description: A375 cells were seeded in 96-well plates (2000 cells/well) and incubated the indicated concentrations of A77 1726 for 72 hr in the absence or presence of various concentrations PLX4720 (A, C) with or without uridine (200 μM) (B, D). Cell proliferation was analyzed by an ATP-based Cell-Glo assay. One representative of three experiments with similar results was shown. *p<0.01.
# A375 cells were grown in complete RPMI 1640 medium supplemented with 10% fetal bovine serum. The cells were seeded in 96-well plates at the density of 2,000/well in the absence or presence of various concentrations of A77 1726, PLX4720, or uridine (200 μM). After incubation for 72 hr, cell proliferation was monitored by using an ATP-based Cell-Glo assay (Promegan, Madison, Wis.) following the manufacturer's instruction.
# [2] = tested on: AKT^S473 and S6K1^T389 phosphorylation; assay: Western blot of PI-3 kinase pathway phosphorylation in A375 cells; format: cell-based; details: A375 cells, dose-dependent
# Description: as §1, §2, §3, §4
# cyclin D1 expression = assay: Cyclin D1 expression in A375 cells; format: cell-based; set-up: dose or concentration left out as unconfirmed; details: A375 cells, 24, 48 and 72 hours; time-dependent
# Description: FIG. 13 illustrates inhibition of […]) expression by A 77 1726.
# S6K 1 has been implicated in playing an important role in regulating expression of cyclin D1. Cyclin D1 expression was tested in the presence of A 77 1726. A375 cells were treated with […] A 77 1726 for 0, 24, 48 and 72 hours.
# Raf-1 phosphorylation = assay: Western blot of Raf-1 phosphorylation in A375 cells; format: cell-based
# Description: A375 cells seeded in a 6-well plate were starved in DMEM medium containing 0.5% FBS for 2 hr and treated with the indicated concentration of A77 1726 or PLX 4720 (1 μM) for another 2 hr (A) or treated with A77 1726 (100 μM) for the indicated time (B & C). Cells were harvested and analyzed for protein phosphorylation by specific antibodies as indicated. Protein loading was monitored by stripping membrane and re-probing with antibodies against non-phosphorylated proteins. (D) Uridine fails to reverse the effect of A77 1726 on the PI-3 and MAP kinase pathways. A375 cells seeded in a 6-well plate were starved in DMEM medium containing 05% FBS for 2 hr and treated with the indicated concentration of A77 1726 in the absence or presence of uridine (200 μM). Phosphorylated and total proteins were analyzed by Western blot as described above.
# Cells grown in 6-well plates were harvested and lysed in NP-40 lysis buffer (50 mM Tris-HCI (pH 8.0), 150 mM NaCl, 1% NP-40, 5 mM EDTA, 10 μg/ml aprotinin, 10 μg/ml leupeptin, and 1 mM phenylmethylsulfonyl fluoride). After incubation on ice for 30 min, the cell lysates were prepared by spinning down at 4° C., 15,000 rpm for 15 min. […]
smiles,measurement,setting,value
C/C(O)=C(\C#N)C(=O)Nc1ccc(C(F)(F)F)cc1 [A77 1726],effect on ERK1/2 and MEK phosphorylation,[1],rapidly and potently induced; also recorded: strongly induced
same,inhibitory effect of A77 1726 blocked by uridine,A375 cells; A77 1726 at 200 μM,about 20%
same,inhibitory effect of A77 1726 blocked by uridine,A375 cells; A77 1726 at 50 or 100 μM,80%
same,IC50,"A375 cells; Homo sapiens, A-375, 72 hr, read-out: IC50, inhibition of A375 proliferation",~65 µM
same,effect on AKT^S473 and S6K1^T389 phosphorylation,[2],strongly induced
same,effect on cyclin D1 expression,cyclin D1 expression,inhibited
same,effect on Raf-1 phosphorylation,Raf-1 phosphorylation,no increased Raf-1 phosphorylation; also recorded: had no effect
